For orientation: IC50 means the concentration that gives 50% inhibition. As a reminder, the melting point is the temperature of the solid-liquid transition.

The subject of data set [1] is enterovirus Cox A16. Briefly: microbe, parasite or virus in culture. The data set is classed as cell-based. The protocol: (§1) Anti-picornaviral activity of the compounds of the present invention in in vitro model Test item: activity screening of compounds against enteroviruses EV71 and Cox A16 Test principle: using Vero cells as virus host, the cytopathic effect of Vero cells induced by the inhibition of compounds against enteroviruses EV71 and Cox A16 was measured.
(§2) 1. Virus strains: enteroviruses EV71 (Shenzhen 98) and Cox A16, passaging in the laboratory.
(§3) Test Method: Vero cells were incubated in a 96-well culture plate. After 24 hours, they were infected with EV71 and Cox A16 by adsorption for 2 hours. After discarding the virus solution, maintenance solutions containing different concentrations of samples and positive controls were added, and, at the same time, cell control wells and virus control wells were set. […] The half inhibitory concentrations (IC50) of the samples against EV71 and Cox A16 were respectively calculated according to the Reed-Muench method.

Data set [2] concerns Vero cells. Description: Toxicity of compounds to the Vero host cells (TC50, TC0). Type of data set: cell-based. Conditions: Vero cells.
Data set [3] concerns enterovirus EV71 (Shenzhen 98). Briefly: Inhibition of cytopathic effect (CPE) induced by EV71 in Vero cells. Type of data set: cell-based. The protocol: as §1, §2, §3
For orientation: Cytopathic effects are the visible damage that an infection or toxin causes in cultured cells.

As for `CC(C)c1ccc(OCCCCCCN2CCN(c3nccs3)CC2)cc1.Cl` [Example 23, 2-{4-[6-(4-isopropylphenoxy)hexyl]piperazin-1-yl}thiazole hydrochloride], the melting point is 135 to 137 °C. Moreover, the IC50 in data set [1] (Enterovirus, CPE in Vero cells, Reed-Muench method, read-out: CoxA16 IC50) amounted to 0.57 µg/mL. Moreover, in data set [1] (SI, CoxA16, Vero cells), the “CoxA16 SI” value is recorded as 34.8. In data set [2], this compound showed a TC0 of 3.13 µg/mL and a TC50 of 19.84 µg/mL. The compound further registered an IC50 in data set [3] (CPE in Vero cells, Reed-Muench method) of 1.97 µg/mL. The “EV71 SI” value in data set [3] (SI, EV71, Vero cells) amounted to 10.1.

The values above are taken from patent US9428496B2, “Thiazolamine derivative and use thereof as anti-picornaviral infection medicament” (Institute of Pharmacology and Toxicology Academy of …, priority 2010, dated 2016).
